These results are taken from PMC12087695, “A Phenotyping Tool for Seven Cytochrome P450 Enzymes and Two Transporters: Application to Examine the Effects of Clopidogrel and Gemfibrozil” (Clinical Pharmacology and Therapeutics, 2025).

The nature of series [1]: Plasma pharmacokinetics of pretreatment drugs clopidogrel, gemfibrozil and their metabolites. To be noted: human, after clopidogrel 300 mg single oral dose (phase IV). Format: in vivo.
Procedure: (§1) This open‐label cross‐over clinical trial included five study phases that each participant underwent in a randomized order (Table 1 ). There was at least 2‐week washout period between different study days.
(§2) On study days, venous blood samples from all participants were drawn from forearm vein cannulas before the administration of the pretreatment drugs and 5 minutes before and 0.5, 1, 1.5, 2, 3, 4, 6, 8, 12, and 23 hours after the administration of the index drugs for determination of index drug and metabolite concentrations. Additional venous blood samples for biomarker analyses were drawn before the administration of the pretreatment drugs and 5 minutes before and 3 hours after the administration of the index drugs. Standardized breakfast was served 1 hour, lunch 3 hours, and snacks 7 and 9 hours after the administration of index drugs. Blood glucose levels were monitored with CareSens Dual point‐of‐care blood glucose meter (i‐SENS Inc., Seoul, South Korea) at each venous blood sampling time point up to 12 hours after the administration of index drugs.
The quality control samples for each analyte at relevant concentrations were quantified with each batch of plasma samples.
The test system of series [2] is CYP2B6. As to conditions: index drug data, healthy volunteers.
Procedure: as §1
(§3) On study days, venous blood samples from all participants were drawn from forearm vein cannulas before the administration of the pretreatment drugs and 5 minutes before and 0.5, 1, 1.5, 2, 3, 4, 6, 8, 12, and 23 hours after the administration of the index drugs for determination of index drug and metabolite concentrations. […] Blood glucose levels were monitored with CareSens Dual point‐of‐care blood glucose meter (i‐SENS Inc., Seoul, South Korea) at each venous blood sampling time point up to 12 hours after the administration of index drugs.
(§4) The flow rate was 0.3 mL/min, and the gradient program for the mobile phase B was from 20% to 90% over 7 minutes, wash at 90% 7–9.5 minutes, followed by balancing at 20% before next injection. […] The quality control samples for each analyte at relevant concentrations were quantified with each batch of plasma samples.
(§5) As for biomarkers, AUC0‐3h values in phases I–III and AUC0‐4h values in phases III–V for GCDCA‐3G and GCDCA‐3S and AUC0‐4h values in phases III and V for M430, M444, and solanidine were calculated with trapezoidal rule in Excel (Microsoft, Redmond, WA). […]
Another series has as its target CYP2C19 (Homo sapiens, UniProt P33261). To be noted: index drug data, healthy volunteers.
For series [3], the system named is CYP2B6. To be noted: 75 mg dose; ref US FDA; cited from earlier work.
For a further series, the target named is T1, CYP2C8 (Homo sapiens, UniProt P10632).
T1 sequence (P10632 1-490): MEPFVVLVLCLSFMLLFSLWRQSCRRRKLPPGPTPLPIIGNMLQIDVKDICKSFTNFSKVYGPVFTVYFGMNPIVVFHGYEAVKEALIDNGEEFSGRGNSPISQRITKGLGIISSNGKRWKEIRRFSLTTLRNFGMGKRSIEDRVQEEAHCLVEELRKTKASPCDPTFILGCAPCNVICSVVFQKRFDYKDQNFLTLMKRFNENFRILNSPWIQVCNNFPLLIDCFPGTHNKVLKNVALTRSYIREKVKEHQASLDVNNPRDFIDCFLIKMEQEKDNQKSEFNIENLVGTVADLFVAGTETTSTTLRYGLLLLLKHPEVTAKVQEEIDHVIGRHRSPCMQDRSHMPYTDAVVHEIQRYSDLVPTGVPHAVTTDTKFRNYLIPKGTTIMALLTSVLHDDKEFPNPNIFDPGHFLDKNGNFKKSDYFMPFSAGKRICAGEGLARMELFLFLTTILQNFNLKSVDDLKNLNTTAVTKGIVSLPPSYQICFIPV
The series can be described thus: CYP2C8 phenotyping with index drug repaglinide. As to conditions: repaglinide index drug data, healthy volunteers.

A further series deals with OATP1B1. Briefly: OATP1B1 endogenous biomarker GCDCA-3G in plasma.
The target in the next series is T2, OATP1B3 (Homo sapiens, UniProt Q9NPD5).
T2 sequence (Q9NPD5 1-702): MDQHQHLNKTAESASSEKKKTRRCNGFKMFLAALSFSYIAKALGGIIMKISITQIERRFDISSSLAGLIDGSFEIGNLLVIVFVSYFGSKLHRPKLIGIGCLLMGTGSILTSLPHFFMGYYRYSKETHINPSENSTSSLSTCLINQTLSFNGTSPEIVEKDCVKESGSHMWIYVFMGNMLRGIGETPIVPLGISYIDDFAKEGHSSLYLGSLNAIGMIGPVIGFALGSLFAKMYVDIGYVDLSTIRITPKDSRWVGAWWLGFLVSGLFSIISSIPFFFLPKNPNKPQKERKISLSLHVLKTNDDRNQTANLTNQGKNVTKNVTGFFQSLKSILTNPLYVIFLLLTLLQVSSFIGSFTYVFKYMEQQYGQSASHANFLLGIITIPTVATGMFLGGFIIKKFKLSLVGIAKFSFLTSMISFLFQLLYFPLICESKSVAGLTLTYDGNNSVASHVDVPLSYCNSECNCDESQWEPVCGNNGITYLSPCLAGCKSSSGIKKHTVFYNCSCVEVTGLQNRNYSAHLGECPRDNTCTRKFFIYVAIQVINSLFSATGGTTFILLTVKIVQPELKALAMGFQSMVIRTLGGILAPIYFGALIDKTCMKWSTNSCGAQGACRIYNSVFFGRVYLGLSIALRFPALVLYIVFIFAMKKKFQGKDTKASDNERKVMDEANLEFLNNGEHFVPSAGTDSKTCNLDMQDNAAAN
The series can be described thus: OATP1B3 endogenous biomarker GCDCA-3S in plasma.

Another series in a line: clinical. To be noted: human, in vivo; for AUC(0-t) / AUC(0-inf) / Cmax: geometric mean (geometric CV); for AUC(0-inf): AUC0-∞; for half-life: t1/2, geometric mean (geometric CV).
Series [4] can be described thus: Plasma pharmacokinetics of cocktail index drugs and their metabolites, five-phase crossover trial.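 Also: parameters derived from plasma drug levels quantified by LC–MS with internal standards after acetonitrile protein precipitation.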
Procedure: as §1
(§6) On study days, venous blood samples from all participants were drawn from forearm vein cannulas before the administration of the pretreatment drugs and 5 minutes before and 0.5, 1, 1.5, 2, 3, 4, 6, 8, 12, and 23 hours after the administration of the index drugs for determination of index drug and metabolite concentrations. […] Standardized breakfast was served 1 hour, lunch 3 hours, and snacks 7 and 9 hours after the administration of index drugs.
(§7) Prior to the analysis, the analytes were extracted from the plasma samples with simple protein precipitation. Plasma samples (50 μL) were mixed with acetonitrile solution (200 μL) containing internal standards. The samples were centrifugated and an aliquot of the supernatant was mixed with an equal volume of water before LC–MS analyses.
(§8) The flow rate was 0.3 mL/min, and the gradient program for the mobile phase B was from 20% to 90% over 7 minutes, wash at 90% 7–9.5 minutes, followed by balancing at 20% before next injection. […] The column and mobile phases were the same as above, and the gradient program for the mobile phase B was from 40% to 90% over 5 minutes, wash at 90% 5–7.3 minutes, followed by balancing at 40% before next injection. The quality control samples for each analyte at relevant concentrations were quantified with each batch of plasma samples.
(§9) Individuals with poor metabolism or transport function phenotype were excluded from respective statistical comparisons.
Series [5] in a line: Safety: adverse effects and blood glucose monitoring. Format: in vivo, human.
Procedure: as §2
Setting [6] is: OATP1B1 normal/decreased function (N = 13), clopidogrel pretreatment.
Where [7] appears, read: OATP1B1 normal/decreased function (N = 13), gemfibrozil pretreatment.
The mark [8] stands for this setting: OATP1B1 normal/decreased function (N = 13), phase III full cocktail (control).
[9] abbreviates: OATP1B1 poor function (N = 3), clopidogrel pretreatment.
Where [10] appears, read: OATP1B1 poor function (N = 3), gemfibrozil pretreatment.
Setting [11] is: OATP1B1 poor function (N = 3), phase III full cocktail (control).
Where [12] appears, read: N = 16, clopidogrel pretreatment.
Where [13] appears, read: N = 16, gemfibrozil pretreatment.
Where [14] appears, read: N = 16, phase III full cocktail (control).
Setting [15] is: AUC0-23h, phase II: Geneva cocktail.
[16] abbreviates: AUC0-23h, phase IV: clopidogrel 300 mg pretreatment + full cocktail.
[17] abbreviates: AUC0-23h, phase V: gemfibrozil 600 mg b.i.d. 3 days pretreatment + full cocktail.
Setting [18] is: phase IV: clopidogrel 300 mg pretreatment + full cocktail.
Where [19] appears, read: phase V: gemfibrozil 600 mg b.i.d. 3 days pretreatment + full cocktail.
Where [20] appears, read: 0.05 mg, phase I: repaglinide 0.05 mg alone.

For orientation: Cmax means the highest concentration seen after dosing. The term AUC(0-inf) denotes the area under the concentration-time curve extrapolated to infinity. Broadly, the half-life is the time needed for the level to fall by half in the phase considered. What is called Tmax is the time at which the peak concentration occurs.

Sequence of CYP2C19 (P33261 whole entry): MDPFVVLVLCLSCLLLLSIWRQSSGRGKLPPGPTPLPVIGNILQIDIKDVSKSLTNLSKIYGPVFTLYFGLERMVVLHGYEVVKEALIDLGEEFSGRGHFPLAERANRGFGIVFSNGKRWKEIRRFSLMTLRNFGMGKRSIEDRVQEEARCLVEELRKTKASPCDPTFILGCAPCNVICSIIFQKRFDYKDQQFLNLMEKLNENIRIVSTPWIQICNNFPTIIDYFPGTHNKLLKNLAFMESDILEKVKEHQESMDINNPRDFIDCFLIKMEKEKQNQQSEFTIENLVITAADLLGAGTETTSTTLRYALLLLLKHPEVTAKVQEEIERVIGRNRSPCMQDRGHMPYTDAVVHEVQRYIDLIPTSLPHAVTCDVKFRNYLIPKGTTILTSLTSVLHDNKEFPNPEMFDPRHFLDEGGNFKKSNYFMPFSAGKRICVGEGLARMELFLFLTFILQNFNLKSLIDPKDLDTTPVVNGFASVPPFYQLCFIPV
Procedure for CYP2C19: as §1, §3, §4, §5
Procedure for CYP2C8: as §1, §3
The limit of quantification for repaglinide was 0.01 ng/mL. […] For GCDCA‐3G and GCDCA‐3S, the limit of quantification was 0.5 ng/mL and the between‐day precisions and accuracies were below 5% and ± 10% at relevant concentrations (10 and 200 ng/mL).
As for biomarkers, AUC0‐3h values in phases I–III and AUC0‐4h values in phases III–V for GCDCA‐3G and GCDCA‐3S and AUC0‐4h values in phases III and V for M430, M444, and solanidine were calculated with trapezoidal rule in Excel (Microsoft, Redmond, WA). 0‐hour metabolic ratio and AUC0‐4h ratios were calculated for M430/solanidine and M444/solanidine. […]
Procedure for OATP1B1: (§10) On study days, venous blood samples from all participants were drawn from forearm vein cannulas before the administration of the pretreatment drugs and 5 minutes before and 0.5, 1, 1.5, 2, 3, 4, 6, 8, 12, and 23 hours after the administration of the index drugs for determination of index drug and metabolite concentrations. Additional venous blood samples for biomarker analyses were drawn before the administration of the pretreatment drugs and 5 minutes before and 3 hours after the administration of the index drugs.
(§11) Plasma repaglinide, OATP1B1 biomarker GCDCA‐3G, OATP1B3 biomarker GCDCA‐3S, and CYP2D6 biomarker solanidine were analyzed using Sciex 5500 Qtrap and Sciex 6500 Qtrap LC–MS systems (AB Sciex, Toronto, ON, Canada) as previously described.[20], [21], [22] The limit of quantification for repaglinide was 0.01 ng/mL. The between‐day precisions (CV%) for quality controls (0.1 and 2.0 ng/mL) were below 10% and accuracies were within ±10%. For GCDCA‐3G and GCDCA‐3S, the limit of quantification was 0.5 ng/mL and the between‐day precisions and accuracies were below 5% and ± 10% at relevant concentrations (10 and 200 ng/mL).
(§12) As for biomarkers, AUC0‐3h values in phases I–III and AUC0‐4h values in phases III–V for GCDCA‐3G and GCDCA‐3S and AUC0‐4h values in phases III and V for M430, M444, and solanidine were calculated with trapezoidal rule in Excel (Microsoft, Redmond, WA).
(§13) Individuals with poor metabolism or transport function phenotype were excluded from respective statistical comparisons. Additionally, to keep comparisons balanced, subjects lacking pharmacokinetic variable data in any study phase were excluded from the respective analyses. Prior to statistical analyses with IBM SPSS Statistics Version 29.0 for Windows (IBM Corporation, Armonk, NY), all pharmacokinetic variable values were logarithmically transformed. Pharmacokinetic variables except T max were compared between different study phases by repeated‐measures analysis of variance with study phase as a within‐subjects factor. T max values were compared with Wilcoxon signed‐rank test. Differences with P < 0.05 after the Bonferroni correction were considered statistically significant. The data are presented as geometrical mean values or geometric mean ratios with geometric CV or 90% confidence intervals (CI) if not otherwise indicated.
Procedure for OATP1B3: as §10, §11, §12, §13
Procedure for clinical: as §1, §6, §7, §8, §9

On to `COC(=O)[C@H](c1ccccc1Cl)N1CCc2sccc2C1` [Clopidogrel, clopidogrel], for which the Cmax in [1] is 3.75 ng/mL. Further, the AUC(0-t) in series [1] (read-out: AUC0-24h, geometric mean (90% CI)) turned out to be 11.6 ng·h/mL. Moreover, in the series with CYP2B6 [2], the “CYP2B6 inhibition strength in the trial” value is reported as “moderate”. In addition, the “CYP2C19 inhibition strength in the trial” value on CYP2C19 is “weak”. In addition, the CYP2B6 inhibitor classification result with CYP2B6 [3] is reported as “weak”. Further, the “CYP2C8 inhibition strength in the trial” value on CYP2C8 is “moderate”. In the series on OATP1B1 (GCDCA-3G biomarker data), the “OATP1B1 inhibition in the trial” value is “did not affect”. Moreover, at OATP1B3 (GCDCA-3S biomarker data), the “OATP1B3 inhibition in the trial” value was “did not affect”.

As to `C[C@H](CCC(=O)NCC(=O)O)[C@H]1CC[C@H]2[C@@H]3[C@H](O)C[C@@H]4C[C@H](O[C@@H]5O[C@H](C(=O)O)[C@@H](O)[C@H](O)[C@H]5O)CC[C@]4(C)[C@H]3CC[C@]12C` [GCDCA‐3G, glycochenodeoxycholate 3‐O‐glucuronide], the “GCDCA-3G AUC0-4h, geometric mean (geometric CV)” value in the series on OATP1B1 (setting [6]) is 77.5 (69.9%) ng × h/mL; with OATP1B1 (setting [7]) it was 118 (65.4%) ng × h/mL; with OATP1B1 (setting [8]), 88.6 (51.3%) ng × h/mL; in the series with OATP1B1 (setting [9]), 791 (56.1%) ng × h/mL; in the series with OATP1B1 (setting [10]), 809 (75.4%) ng × h/mL; in the series with OATP1B1 (setting [11]) it was 755 (48.4%) ng × h/mL. In addition, the “GCDCA-3G C0, geometric mean (geometric CV)” value is 21.7 (81.7%) ng/mL in the series with OATP1B1 (setting [6]); 35.7 (82.5%) ng/mL with OATP1B1 (setting [7]); 22.9 (60.0%) ng/mL with OATP1B1 (setting [8]); 238 (57.2%) ng/mL with OATP1B1 (setting [9]); 215 (79.1%) ng/mL in the series with OATP1B1 (setting [10]); 206 (73.8%) ng/mL in the series with OATP1B1 (setting [11]). For the same molecule, the “GCDCA-3G AUC0-3h, geometric mean (geometric CV)” value in the series on OATP1B1 (setting [8]) is listed as 66.3 (49.6%) ng×h/mL; in the series on OATP1B1 (OATP1B1 normal/decreased function (N=13), phase I repaglinide only) it was 68.3 (61.0%) ng×h/mL; in the series with OATP1B1 (OATP1B1 normal/decreased function (N=13), phase II Geneva cocktail only), 63.6 (75.2%) ng×h/mL.

On to `C[C@H](CCC(=O)NCC(=O)O)C1CCC2C3C(CC[C@@]21C)[C@@]1(C)CC[C@@H](OS(=O)(=O)O)C[C@H]1C[C@H]3O` (some centres unmarked) [GCDCA‐3S, glycochenodeoxycholate 3‐sulfate], for which the “GCDCA-3S AUC0-4h, geometric mean (geometric CV)” value is recorded as 146 (61.8%) ng × h/mL on OATP1B3 (setting [12]), 212 (46.9%) ng × h/mL on OATP1B3 (setting [13]) and 190 (67.4%) ng × h/mL on OATP1B3 (setting [14]). For the same molecule, the “GCDCA-3S C0, geometric mean (geometric CV)” value at OATP1B3 (setting [12]) is 49.2 (69.3%) ng/mL; on OATP1B3 (setting [13]) it was 65.5 (72.9%) ng/mL; at OATP1B3 (setting [14]), 50.8 (85.3%) ng/mL. Besides, the “GCDCA-3S AUC0-3h, geometric mean (geometric CV)” value is 141 (68.3%) ng×h/mL at OATP1B3 (setting [14]); 119 (69.0%) ng×h/mL on OATP1B3 (N=16, phase I repaglinide only); 106 (65.4%) ng×h/mL on OATP1B3 (N=16, phase II Geneva cocktail only).

As to `Cc1ncc2n1-c1ccc(Cl)cc1C(c1ccccc1F)=NC2` [Midazolam, midazolam], the values for the AUC(0-t) in “clinical” (setting [15]), in the series “clinical” (setting [16]) and in the series “clinical” (setting [17]) were 9.89 ng·h/mL, 11.3 ng·h/mL and 8.06 ng·h/mL, respectively. Besides, the AUC(0-inf) is 9.82 ng·h/mL in “clinical” (phase II: Geneva cocktail), 11.2 ng·h/mL in the series “clinical” (setting [18]) and 7.98 ng·h/mL in “clinical” (setting [19]). The Cmax in “clinical” (setting [18]) turned out to be 4.33 ng/mL; in “clinical” (setting [19]), 3.25 ng/mL. Further, the results for the half-life in “clinical” (phase II: Geneva cocktail), in “clinical” (setting [18]) and in “clinical” (setting [19]) were 2.29 h, 2.4 h and 2.29 h, respectively. Moreover, the “Cmax, geometric mean (geometric CV)” value in [4] (phase II: Geneva cocktail) was 4.03 (36.4%) ng/mL. The “Tmax, median (range)” value in series [4] (phase II: Geneva cocktail) was 0.5 (0.5-1.0) h; in series [4] (setting [18]) it was 1.0 (0.5-1.0) h.

Take `COc1ccc2[nH]c([S+]([O-])Cc3ncc(C)c(OC)c3C)nc2c1` (centres unmarked) [Omeprazole, omeprazole]: the AUC(0-t) in “clinical” (setting [15]) amounted to 177 ng·h/mL; in the series “clinical” (setting [16]) it was 214 ng·h/mL. Further, the figures for the AUC(0-inf) in the series “clinical” (phase II: Geneva cocktail), in “clinical” (setting [18]) and in the series “clinical” (setting [19]) were 177 ng·h/mL, 214 ng·h/mL and 149 ng·h/mL, respectively. Further, the Cmax in the series “clinical” (setting [18]) was found to be 167 ng/mL; in “clinical” (setting [19]) it was 98 ng/mL. In “clinical” (phase II: Geneva cocktail), this molecule had a half-life of 0.76 h. In [4] (phase II: Geneva cocktail), the “Cmax, geometric mean (geometric CV)” value is given as 144 (88.5%) ng/mL. The “t1/2, geometric mean (geometric CV)” value in series [4] (setting [18]) is 0.69 (30.9%) h; in series [4] (setting [19]), 0.78 (59.9%) h. Also, the “AUC0-23h, geometric mean (geometric CV)” value in series [4] (setting [19]) is on record as 150 (62.8%) ng×h/mL.

In the case of `CCOc1cc(CC(=O)N[C@@H](CC(C)C)c2ccccc2N2CCCCC2)ccc1C(=O)O` [Repaglinide, repaglinide], in series [5] (0.05 mg repaglinide, breakfast an hour later, also after gemfibrozil pretreatment), the Hypoglycemia result was “no hypoglycemia was observed”. In series [5] (all study phases, 16 healthy volunteers), the “Safety / adverse effects” value is given as “safe”. The AUC(0-t) in “clinical” (0.05 mg, AUC0-4h, phase I: repaglinide 0.05 mg alone) is 0.936 ng·h/mL; in “clinical” (0.05 mg, AUC0-23h, phase I: repaglinide 0.05 mg alone), 1.01 ng·h/mL; in “clinical” (AUC0-4h, phase IV: clopidogrel 300 mg pretreatment + full cocktail), 3.7 ng·h/mL; in the series “clinical” (AUC0-4h, phase V: gemfibrozil 600 mg b.i.d. 3 days pretreatment + full cocktail), 4.93 ng·h/mL; in “clinical” (setting [16]), 5.55 ng·h/mL; in “clinical” (setting [17]), 9.21 ng·h/mL. The AUC(0-inf) in “clinical” (setting [20]) was found to be 1.01 ng·h/mL; in “clinical” (setting [18]), 5.65 ng·h/mL; in the series “clinical” (setting [19]), 9.64 ng·h/mL. Besides, the Cmax worked out at 0.701 ng/mL in the series “clinical” (setting [20]), 1.69 ng/mL in the series “clinical” (setting [18]) and 2.08 ng/mL in “clinical” (setting [19]). For the same molecule, the half-life in the series “clinical” (setting [20]) was 1.07 h; in the series “clinical” (setting [18]), 2.78 h; in the series “clinical” (setting [19]), 3.35 h. In “clinical” (Tmax, median (range), phase IV: clopidogrel 300 mg pretreatment + full cocktail), the time to peak (Tmax) was determined as 1 h. Besides, in series [4] (phase I: repaglinide 0.05 mg alone), the “Tmax, median (range)” value is 0.5 (0.5-1.0) h.
